Here are results for 3 molecules from patent US6036958A, “Tsetse thrombin inhibitor” (Yale University, priority 1999, dated 2000).

Assay [1] concerns collagen induced platelet aggregation. The assay is described as follows: Platelet aggregation assay, collagen induced. It is filed as cell-based, human. The note with it: purified TTI. As to the method: (§1) Platelet Aggregation Assay. Blood from a healthy human volunteer was collected by venipuncture, anticoagulated with 1/10 volume of 0.08 M trisodium citrate, and centrifuged at 150 g for 10 min. The platelet rich plasma (PRP) was withdrawn and acidified to pH 6.4 using 0.15 M citric acid^15. The PRP was then centrifuged at 370 g for 20 min and the supernatant discarded. The platelet pellet was resuspended in Tyrodes solution (pH 7.4) with 3.13% wt/vol trisodium citrate and counted in a Coulter counter (Coulter Electronics, Hialeah, Fla.). The concentration of platelets was adjusted to 3×10^4 /μl prior to use.

Another assay addresses thrombin (Homo sapiens, UniProt P00734). The experiment in a line: Single stage chromogenic assay of thrombin inhibition (S-2238). The assay is classed as biochemical. The note with it: purified protein. As to the method: Thrombin Assays. A single stage chromogenic assay of thrombin inhibition was used to monitor SGE activity. 100 μl of thrombin, diluted to a concentration of 1 nM in 10 mM HEPES, pH 7.5 containing 0.1% bovine serum albumin and 150 mM NaCl (HBSA), was incubated with 50 µl of SGE, column fractions (diluted 1:1000 in HBSA), or purified TTI for 15 min at 25° C. in a 96 well microtiter plate. Following the addition of […], the initial rate (mOD/min) of substrate hydrolysis over 5 min was measured at 405 nm using a Vmax kinetic microplate reader (Molecular Devices, Palo Alto, Calif.). Results were expressed as percent inhibition of thrombin activity using the following formula:
Percent inhibition=1--(inhibited rate/uninhibited rate)×100

For assay [2], the system named is thrombin induced platelet aggregation. The assay is described as follows: Platelet aggregation assay, thrombin induced. It is filed as cell-based. The note with it: washed human platelets; TTI 0, 0.001, 0.5, 1.0 nM; thrombin 0.2 NIH U/ml. As to the method:
as §1
To determine the effect of TTI on thrombin induced aggregation, 200 μl of washed platelets were warmed to 37° C. in a Born multi-channel aggregometer in the presence of increasing concentrations of purified TTI. Aggregation was then recorded following the addition of 20 μl of thrombin (Boehringer-Mannheim, Indianapolis, Ind.) at a final concentration of 0.2 NIH U/ml. The aggregometer was calibrated to 100% light transmission, ie 0% aggregation, using Tyrodes solution.

Assay [3] concerns ADP induced platelet aggregation. The experiment in a line: Platelet aggregation assay, ADP induced. It is filed as cell-based, human. The note with it: purified TTI. As to the method: as §1
Assay [4] concerns restenosis following angioplasty. The note with it: rabbits; cited from earlier work.

No end group written: not given here.

Consider “TTI: low molecular weight polypeptide (about 3530 Da) purified from Glossina morsitans morsitans salivary glands; residues 19 to 50 of SEQ ID NO: 2 (GEPGAPIDYDEYGDSSEEVGGTPLHEIPGIRL)”, for which, in assay [1], the “effect on collagen induced aggregation” value is on record as “no effect”. Further, the “inhibitory activity against thrombin” value with thrombin is reported as “potent, tight-binding inhibitor of thrombin”. Also, in assay [2], the “inhibition of platelet aggregation in response to thrombin” value is “dose dependent inhibition of platelet aggregation”. Moreover, the “effect on ADP induced aggregation” value in assay [3] was “no effect”.

For the molecule “tick anticoagulant peptide: from Ornithodoros moubata, potent and specific inhibitor of factor Xa (YNRLCIKPRDWIDECDSNEGGERAYFRNGKGGCDSFWICPEDHTGADYYSSYRDCFNACI; ends and bridges not checked; cysteine pairing not given here; UniProt P17726 1-60, looked up) [reference compound]”, in assay [4], the “reducing restenosis following angioplasty, compared with heparin” value was “superior to heparin”.

B1: recombinant antistasin: from the leech Haementaria officinalis, potent and specific inhibitor of factor Xa (protein, UniProt P15358 18-136, looked up)
Antistasin: QGPFGPGCEEAGCPEGSACNIITDRCTCSGVRCRMHCPHGFQRSRYGCEFCKCRLEPMKATCDISECPEGMMCSRLTNKCDCKIDINCRKTCPNGLKRDKLGCEYCECRPKRKLIPRLS
Consider B1, for which, in assay [4], the “reducing restenosis following angioplasty, compared with heparin” value is “superior to heparin”.
